Measurements: ChEMBL document CHEMBL3808294, “Design, synthesis and anti-HIV activity of novel quinoxaline derivatives” (Eur J Med Chem, 2016)
≈ marks a conversion by molar mass, not a printed value.

Tests used:
[1] = Cytotoxicity against human MT4 cells […] assessed as cell growth inhibition after 5 days by MTT assay; assay type: cell-based
[2] = system: Human immunodeficiency virus 1; assay: Antiviral activity against HIV1 3B infected in human MT4 cells assessed as protection against virus-induced cytopathogenic effect after 5 days by MTT assay; assay type: functional, organism-based; conditions: for IC50: Human immunodeficiency virus 1, 3B, MT4, 120 h
Vero = assay: Cytotoxicity against African green monkey Vero cells assessed as cell growth inhibition after 24 hrs by MTT assay; assay type: cell-based; conditions: Chlorocebus sabaeus

SMILES	CC50 at 120 h [1]	%max [2]	IC50 [2]	IC50 (Vero)
Cc1ccc(-c2nc3cc(F)c(Cl)cc3nc2-c2ccc(C)cc2)cc1	27.8 µg/mL (≈ 76.6 µM)	4%	> 27.8 µg/mL	> 100 µg/mL
Nc1nc2cc(F)c(Cl)cc2nc1N	38.5 µg/mL (≈ 181 µM)	9%	> 38.4 µg/mL	> 100 µg/mL
Fc1cc2nccnc2cc1Cl	91.2 µg/mL (≈ 499 µM)	3%	> 91.1 µg/mL	13.7 µg/mL (≈ 75 µM)
Cc1nc2cc(F)c(Cl)cc2nc1C	49.7 µg/mL (≈ 236 µM)	5%	> 49.7 µg/mL	> 100 µg/mL
Fc1cc2nc(-c3ccccc3)c(-c3ccccc3)nc2cc1Cl	11.8 µg/mL (≈ 35.2 µM)	3%	> 11.8 µg/mL	> 100 µg/mL
Fc1ccc(-c2nc3cc(F)c(Cl)cc3nc2-c2ccc(F)cc2)cc1	15.4 µg/mL (≈ 41.7 µM)	3%	> 15.4 µg/mL	> 100 µg/mL
COc1ccc(-c2nc3cc(F)c(Cl)cc3nc2-c2ccc(OC)cc2)cc1	30.6 µg/mL (≈ 77.4 µM)	1%	> 30.5 µg/mL	> 100 µg/mL
O=c1[nH]cnc2c1ncn2[C@H]1CC[C@@H](CO)O1 [DIDANOSINE]			17.9 µg/mL (≈ 76 µM)	
Nc1ccn([C@@H]2CS[C@H](CO)O2)c(=O)n1 [LAMIVUDINE]	20 µg/mL (≈ 87.2 µM)		0.58 µg/mL (≈ 2.53 µM)	
Cc1ccnc2c1NC(=O)c1cccnc1N2C1CC1 [NEVIRAPINE]			0.075 µg/mL (≈ 0.282 µM)	> 100 µg/mL
CC(=O)O[C@H]1C(=O)[C@@]2(C)[C@H]([C@H](OC(=O)c3ccccc3)[C@]3(O)C[C@H](OC(=O)[C@H](O)[C@@H](NC(=O)c4ccccc4)c4ccccc4)C(C)=C1C3(C)C)[C@]1(OC(C)=O)CO[C@@H]1C[C@@H]2O [PACLITAXEL]				> 100 µg/mL
Cc1cn([C@H]2C[C@H](N=[N+]=[N-])[C@@H](CO)O2)c(=O)[nH]c1=O [ZIDOVUDINE]	2 µg/mL (≈ 7.48 µM)		0.002 µg/mL (≈ 0.00748 µM)	
